The values that follow come from US8163777B2, “Benzimidazolyl-pyridine compounds for inflammation and immune-related uses” (Synta Pharmaceuticals Corp., priority 2006, dated 2012).

In the test the test system is IL-2, IL-4, IL-5, IL-13, GM-CSF, INF-γ and TNF-α. The test is described as follows: Inhibition of multiple cytokines in primary human PBMCs (summary statement). Format: cell-based. To be noted: PHA-stimulated PBMCs. The method, then:
Cytokine production was measured using commercially available human ELISA assay kits (from Cell Science, Inc.) following the manufacturers instructions.

Regarding `CC(C)(C)OC(=O)Nc1ccc(C(=O)Nc2ccc(-n3c(C(F)(F)F)nc4ccccc43)cc2)c(F)c1F` [Compound 31, N-(4-{N-[4-(2-trifluoromethyl-benzoimidazol-1-yl)-phenyl]-carbamoyl}-2,3-difluoro-phenyl)-carbamic acid t-butyl ester], the “inhibition of IL-2, IL-4, IL-5, IL-13, GM-CSF, INF-γ and TNF-α (in words)” value (“inhibition” for short) is listed as “potent inhibitors”.

Take `CCCCc1ccc(C(=O)Nc2ccc(-n3c(C(F)(F)F)nc4cc(OC)ccc43)cc2)cc1` [Compound 66, 4-Butyl-N-[4-(2-trifluoromethyl-5-methoxy-benzoimidazol-1-yl)-phenyl]-benzamide]: the “inhibition” value was “potent inhibitors”.

On to `COc1ccc2c(c1)nc(C(F)(F)F)n2-c1ccc(NC(=O)c2ccc3c(c2)OCO3)cc1` [Compound 75, Benzo[1,3]dioxole-5-carboxylic acid {N-[4-(2-trifluoromethyl-5-methoxy-benzoimidazol-1-yl)-phenyl]} amide], for which the “inhibition” value is on record as “potent inhibitors”.
